ChEMBL document CHEMBL5518178 (Eur J Med Chem, 2024)
Calls of active or inactive are those of the source. The rule behind the calls is not given here.

Key:
[1] = Toxicity in BALB/c-nude mouse xenografted with human MGC-803 cells assessed as alteration in liver tissue at 30 mg/kg/day, ip administered for 18 days by hematoxylin and eosin staining based analysis; type: organism-based; settings: in vivo, 432 h, time 18 day
HCT-116 = experiment: Antiproliferative activity against human HCT-116 cells assessed as inhibition of cell growth incubated for 48 hrs by MTT assay; type: functional, cell-based; settings: HCT-116, 48 h
KYSE-30 = experiment: Antiproliferative activity against human KYSE-30 cells assessed as inhibition of cell growth incubated for 48 hrs by MTT assay; type: functional, cell-based; settings: KYSE-30, 48 h
MGC-803 [2] = experiment: Antiproliferative activity against human MGC-803 cells assessed as reduction in cell viability incubated for 12 to 48 hrs by MTT assay; type: functional, cell-based; settings: dose 20-80 µM, time 12-48 hrs
MGC-803 [3] = experiment: Antiproliferative activity against human MGC-803 cells assessed as increase in proportion of dead cells at 10 to 40 nmol/L incubated for 48 hrs by Calcein-AM/propidium iodide staining based fluorescence microscopic analysis; type: functional, cell-based; settings: dose 10-40 nmol/L
Tubulin (Homo sapiens) [4] = target: T1, Tubulin (Homo sapiens) (UniProt P68371+Q9H4B7+P0DPH7+P68366+Q13509+Q71U36+P04350+Q3ZCM7+P07437+P68363+Q9BQE3+Q6PEY2+Q13885+Q9BVA1+Q9BUF5); experiment: Inhibition of tubulin polymerization in human MGC-803 cells assessed as appearance of multinucleated cells at 10 to 40 nmol/L incubated for 48 hrs by DAPI staining based fluorescence microscopic analysis; type: cell-based; settings: dose 10-40 nmol/L
MGC-803 [5] = experiment: Induction of apoptosis in human MGC-803 cells assessed as viable cells at 10 nmol/L incubated for 48 hrs by Annexin V-FITC/propidium iodide staining based flow cytometer analysis (reference value: 93.08 %); type: functional; settings: read-out: Activity
[6] = Toxicity in BALB/c-nude mouse xenografted with human MGC-803 cells assessed as alteration in kidney tissue at 30 mg/kg/day, ip administered for 18 days by hematoxylin and eosin staining based analysis; type: organism-based; settings: in vivo, 432 h, time 18 day
MGC-803 [7] = experiment: Anti-migratory activity against human MGC-803 cells assessed as inhibition of cell migration at lower concentration measured for 48 hrs by wound healing assay; type: functional, cell-based
MGC-803 [8] = experiment: Induction of apoptosis in human MGC-803 cells assessed as necrotic cells at 10 nmol/L incubated for 48 hrs by Annexin V-FITC/propidium iodide staining based flow cytometer analysis (reference value: 0.32 %); type: functional
MGC-803 [9] = experiment: Antitumor activity against human MGC-803 cells xenografted in BALB/c-nude mouse assessed as tumor growth rate at 30 mg/kg/day, ip administered for 18 days relative to control; type: functional; settings: time 18 day
MGC-803 [10] = experiment: Induction of apoptosis in human MGC-803 cells assessed as late apoptotic cells at 10 nmol/L incubated for 48 hrs by Annexin V-FITC/propidium iodide staining based flow cytometer analysis (reference value: 2.22 %); type: functional
MGC-803 [11] = experiment: Induction of apoptosis in human MGC-803 cells assessed as early apoptotic cells at 10 nmol/L incubated for 48 hrs by Annexin V-FITC/propidium iodide staining based flow cytometer analysis (reference value: 4.38 %); type: functional
[12] = target: Tubulin beta (Homo sapiens) (UniProt P68371+Q9H4B7+Q13509+P04350+Q3ZCM7+P07437+Q13885+Q9BVA1+Q9BUF5+A6NNZ2); experiment: Binding affinity to beta-tubulin (unknown origin) assessed as increase in alkaline protease level at 1 to 100 uM preincubated for 1 hr followed by alkaline protease addition and measured after 15 mins by Western blotting analysis; type: protein assay; settings: dose 1-100 µM, time 75.0 min
MGC-803 [13] = experiment: Induction of apoptosis in human MGC-803 cells assessed as viable cells at 20 nmol/L incubated for 48 hrs by Annexin V-FITC/propidium iodide staining based flow cytometer analysis (reference value: 93.08 %); type: functional; settings: read-out: Activity
MGC-803 [14] = experiment: Antiproliferative activity against human MGC-803 cells assessed as increase in nuclear concentration at 10 to 40 nmol/L incubated for 48 hrs by DAPI staining based fluorescence microscopic analysis; type: functional, cell-based; settings: dose 10-40 nmol/L
MGC-803 [15] = experiment: Antiproliferative activity against human MGC-803 cells assessed as inhibition of cell growth incubated for 48 hrs by MTT assay; type: functional, cell-based; settings: MGC-803, 48 h
[16] = Toxicity in BALB/c-nude mouse xenografted with human MGC-803 cells assessed as alteration in spleen tissue at 30 mg/kg/day, ip administered for 18 days by hematoxylin and eosin staining based analysis; type: organism-based; settings: in vivo, 432 h, time 18 day
[17] = Toxicity in BALB/c-nude mouse xenografted with human MGC-803 cells assessed as abnormal behaviour at 30 mg/kg/day, ip administered for 18 days; type: organism-based; settings: in vivo, 432 h, time 18 day
MGC-803 [18] = experiment: Induction of apoptosis in human MGC-803 cells assessed as decrease in Bcl-xL protein level at 10 to 40 nmol/L incubated for 48 hrs by Western blotting; type: functional, cell-based; settings: dose 10-40 nmol/L
MGC-803 [19] = experiment: Induction of apoptosis in human MGC-803 cells assessed as late apoptotic cells at 40 nmol/L incubated for 48 hrs by Annexin V-FITC/propidium iodide staining based flow cytometer analysis (reference value: 2.22 %); type: functional
MGC-803 [20] = experiment: Antiproliferative activity against human MGC-803 cells assessed as reduction in cell viability at 20 to 80 nmol/L by MTT assay; type: functional, cell-based; settings: dose 20-80 nmol/L, time 12-48 hrs, TDE = time-dependent effect
MGC-803 [21] = experiment: Induction of cell cycle arrest in human MGC-803 cells at M phase assessed as increase in p-Histone H3 level at 10 to 40 nmol/L incubated for 48 hrs by Western blotting; type: functional, cell-based; settings: dose 10-40 nmol/L
MGC-803 [22] = experiment: Antiproliferative activity against human MGC-803 cells assessed as increase in nuclear brightness at 10 to 40 nmol/L incubated for 48 hrs by DAPI staining based fluorescence microscopic analysis; type: functional, cell-based; settings: dose 10-40 nmol/L
MGC-803 [23] = experiment: Antitumor activity against human MGC-803 cells xenografted in BALB/c-nude mouse assessed as tumor weight at 30 mg/kg/day, ip administered for 18 days (reference value: 0.656 g); type: functional; settings: time 18 day
MGC-803 [24] = experiment: Inhibition of colony formation in human MGC-803 cells incubated for 7 days by crystal violet staining based analysis; type: functional, cell-based; settings: dose 24-40 nmol/L, time 7.0 day
[25] = Toxicity in BALB/c-nude mouse xenografted with human MGC-803 cells assessed as change in body weight at 30 mg/kg/day, ip administered for 18 days; type: organism-based; settings: in vivo, 432 h, time 18 day
MGC-803 [26] = experiment: Antiproliferative activity against human MGC-803 cells assessed as decrease in cell damage at 10 to 40 nmol/L incubated for 48 hrs by bright field microscopic analysis; type: functional, cell-based; settings: dose 10-40 nmol/L
MGC-803 [27] = experiment: Induction of apoptosis in human MGC-803 cells assessed as viable cells at 40 nmol/L incubated for 48 hrs by Annexin V-FITC/propidium iodide staining based flow cytometer analysis (reference value: 93.08 %); type: functional; settings: read-out: Activity
MGC-803 [28] = experiment: Induction of cell cycle arrest in human MGC-803 cells assessed as increase in G2/M phase cells at 10 to 40 nmol/L incubated for 24 hrs by RNAse/propidium iodide staining based flow cytometry analysis relative to control; type: functional; settings: dose 10-40 nmol/L, at 10 to 40 nM
Tubulin (Homo sapiens) [29] = target: T1, Tubulin (Homo sapiens); experiment: Inhibition of tubulin polymerization (unknown origin) at 3 uM by fluorescence plate reader analysis; type: protein-complex assay
MGC-803 [30] = experiment: Antiproliferative activity against human MGC-803 cells assessed as decrease in cell density at 10 to 40 nmol/L incubated for 48 hrs by bright field microscopic analysis; type: functional, cell-based; settings: dose 10-40 nmol/L

SMILES: COc1ccc2c(c1)CCCN2c1cc(=O)oc2ccccc12
- Activity [1]: Non-Toxic
- IC50 (HCT-116): 81 nM
- IC50 (KYSE-30): 190 nM
- Activity (MGC-803 [2]): Dose-Dependent Effect
- Activity (MGC-803 [3]): Active
- inhibition (Tubulin (Homo sapiens) [4]): Active
- viability at 0.01 µM (MGC-803 [5]): 92.2%
- Activity [6]: Non-Toxic
- Activity (MGC-803 [7]): Active
- Activity (MGC-803 [8]): 0.34%
- Activity (MGC-803 [9]): 25%
- Activity (MGC-803 [10]): 2.8%
- Activity (MGC-803 [11]): 4.68%
- Activity [12]: Active
- viability at 0.02 µM (MGC-803 [13]): 88%
- Activity (MGC-803 [14]): Active
- IC50 (MGC-803 [15]): 34 nM
- Activity [16]: Non-Toxic
- Activity [17]: Non-Toxic
- Activity (MGC-803 [18]): Active
- Activity (MGC-803 [19]): 17.65%
- Activity (MGC-803 [20]): Tde
- Activity (MGC-803 [21]): Active
- Activity (MGC-803 [22]): Active
- Activity (MGC-803 [23]): 0.226 g
- inhibition (MGC-803 [24]): Dose-Dependent Effect
- Activity [25]: Non-Toxic
- Activity (MGC-803 [26]): Active
- viability at 0.04 µM (MGC-803 [27]): 39.1%
- Activity (MGC-803 [28]): 18%
- inhibition (Tubulin (Homo sapiens) [29]): Active
- Activity (MGC-803 [30]): Active
